This passage reports IC50 results from patent US11524944B2, “2-phenylpyrimidine-4-carboxamides as AHR inhibitors” (Bayer Aktiengesellschaft, priority 2017, dated 2022).

Where only a bound is given, the exact number is not on record here.

For the assay, the target named is T1, Human AhR (Homo sapiens, UniProt P35869).
T1 construct: host or cells: U87 glioblastoma cells, stably transfected with a DRE firefly luciferase reporter and a constitutive renilla reporter
T1 sequence (P35869 11-848): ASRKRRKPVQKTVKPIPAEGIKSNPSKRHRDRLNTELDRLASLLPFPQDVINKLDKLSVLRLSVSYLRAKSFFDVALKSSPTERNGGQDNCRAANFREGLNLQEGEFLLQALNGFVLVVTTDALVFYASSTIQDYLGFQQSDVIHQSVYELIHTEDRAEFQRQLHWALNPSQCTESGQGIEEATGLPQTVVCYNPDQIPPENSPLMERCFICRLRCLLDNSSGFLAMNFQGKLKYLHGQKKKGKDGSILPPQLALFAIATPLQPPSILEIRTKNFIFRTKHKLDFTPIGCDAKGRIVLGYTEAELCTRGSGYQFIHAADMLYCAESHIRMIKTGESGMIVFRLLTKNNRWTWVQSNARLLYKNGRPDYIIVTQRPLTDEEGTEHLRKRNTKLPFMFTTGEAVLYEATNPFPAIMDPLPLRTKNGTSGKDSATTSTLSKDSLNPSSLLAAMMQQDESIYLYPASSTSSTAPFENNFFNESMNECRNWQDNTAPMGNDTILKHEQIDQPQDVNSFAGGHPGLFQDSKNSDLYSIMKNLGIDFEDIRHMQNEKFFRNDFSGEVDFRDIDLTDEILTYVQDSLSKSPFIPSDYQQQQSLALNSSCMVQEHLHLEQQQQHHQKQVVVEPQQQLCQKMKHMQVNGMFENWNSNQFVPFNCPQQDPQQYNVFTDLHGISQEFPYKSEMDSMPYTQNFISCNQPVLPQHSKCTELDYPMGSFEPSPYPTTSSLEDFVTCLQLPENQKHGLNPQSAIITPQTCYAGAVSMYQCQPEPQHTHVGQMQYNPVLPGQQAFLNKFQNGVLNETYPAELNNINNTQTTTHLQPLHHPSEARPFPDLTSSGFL
The assay is described as follows: Transactivation assay in human cell line (in vitro assay 1): antagonism. The class given is cell-based. The following applies: U87 glioblastoma cells, AHR inducible firefly luciferase reporter (DRE), 150 μM kynurenic acid, 20 hours. As to the method:
Examples were tested in selected biological assays one or more times. When tested more than once, data are reported as either average values or as median values, wherein • the average value, also referred to as the arithmetic mean value, represents the sum of the values obtained divided by the number of times tested, and • the median value represents the middle number of the group of values when ranked in ascending or descending order. If the number of values in the data set is odd, the median is the middle value. If the number of values in the data set is even, the median is the arithmetic mean of the two middle values.
Transactivation Assay in Human Cell Line (In Vitro Assay 1)
Transactivation assay was carried out in U87 glioblastoma cells (ATCC) endogenously expressing AHR. In addition the cells were stably transfected with an AHR inducible firefly luciferase reporter gene construct that carried AHR-binding sites (DRE) in its promoter and a renilla reporter gene construct with constitutively active promoter. Kynurenic acid is an endogenous AHR activating ligand and was used to prestimulate test cells prior to testing the antagonistic properties of compounds.
In Vitro Assay 1: Antagonism in Human Cell Line
Firefly luciferase and Renilla activity was determined by the DualGlo Luciferase Assay System (Promega, #2920). Renilla activity was used to assess toxic effects of compounds.
For orientation: In a reporter assay the amount or activity of a reporter protein is the signal.
For orientation: IC50 means the concentration needed to halve the response being measured. For `CC(C)(O)CNC(=O)c1cc(-c2ccc(Cl)cc2)nc(-c2cccc(F)c2)n1` [Example 1, 6-(4-Chlorophenyl)-2-(3-fluorophenyl)-N-(2-hydroxy-2-methylpropyl)pyrimidine-4-carboxamide], the IC50 was above 20000 nM.

The compound `CC(C)(O)CNC(=O)c1cc(-c2ccc(OC(F)(F)F)cc2)nc(-c2ccc(F)cc2)n1` [Example 13, 2-(4-fluorophenyl)-N-(2-hydroxy-2-methylpropyl)-6-[4-(trifluoromethoxy)phenyl]pyrimidine-4-carboxamide] gave an IC50 of 26 nM. In other words, the double-digit nanomolar range.

The compound `CC(C)(O)CNC(=O)c1cc(-c2ccc(OC(F)(F)F)cc2)nc(-c2ccc(C(F)F)cc2)n1` [Example 25, 2-[4-(difluoromethyl)phenyl]-N-(2-hydroxy-2-methylpropyl)-6-[4-(trifluoromethoxy)phenyl]pyrimidine-4-carboxamide] had a 50% inhibitory concentration (IC50) above 20000 nM.

Compound `CC(C)(O)CNC(=O)c1cc(-c2ccc(OC(F)(F)F)cc2)nc(-c2cc(F)cc(C#N)c2)n1` [Example 26, 2-(3-cyano-5-fluorophenyl)-N-(2-hydroxy-2-methylpropyl)-6-[4-(trifluoromethoxy)phenyl]pyrimidine-4-carboxamide] yielded a concentration for half-maximal inhibition (IC50) of 40.2 nM.

In the case of `COc1ccc(-c2nc(C(=O)N[C@@H](C)CO)cc(-c3ccc(OC(F)(F)F)cc3)n2)cc1` [Example 30, N-[(2S)-1-hydroxypropan-2-yl]-2-(4-methoxyphenyl)-6-[4-(trifluoromethoxy)phenyl]pyrimidine-4-carboxamide], the IC50 came to 730 nM. Compared with the last compound, the IC50 is about 18-fold higher.

Compound `C[C@@H](CO)NC(=O)c1cc(-c2ccc(OC(F)(F)F)cc2)nc(-c2cc(Cl)cc(Cl)c2)n1` [Example 34, 2-(3,5-dichlorophenyl)-N-[(2S)-1-hydroxypropan-2-yl]-6-[4-(trifluoromethoxy)phenyl]pyrimidine-4-carboxamide] returned an IC50 of 170 nM.

In the case of `C[C@@H](CO)NC(=O)c1cc(-c2ccc(OC(F)(F)F)cc2)nc(-c2ccc(F)c(C#N)c2)n1` [Example 35, 2-(3-cyano-4-fluorophenyl)-N-[(2S)-1-hydroxypropan-2-yl]-6-[4-(trifluoromethoxy)phenyl]pyrimidine-4-carboxamide], the concentration for half-maximal inhibition (IC50) was determined as 78.3 nM.

For the compound `C[C@@H](CO)NC(=O)c1cc(-c2ccc(OC(F)(F)F)cc2)nc(-c2ccc(Cl)c(Cl)c2)n1` [Example 38, 2-(3,4-dichlorophenyl)-N-[(2S)-1-hydroxypropan-2-yl]-6-[4-(trifluoromethoxy)phenyl]pyrimidine-4-carboxamide], half-maximal inhibition (IC50) was put at 4350 nM.

In turn, `C[C@@H](CO)NC(=O)c1cc(-c2ccc(OC(F)(F)F)cc2)nc(-c2cc(F)cc(C#N)c2)n1` [Example 43, 2-(3-cyano-5-fluorophenyl)-N-[(2S)-1-hydroxypropan-2-yl]-6-[4-(trifluoromethoxy)phenyl]pyrimidine-4-carboxamide] displayed an IC50 of 21.5 nM.

`CC(C)(O)CNC(=O)c1cc(-c2ccc(Cl)cc2)nc(-c2ccc(Br)cc2)n1` [Example 44, 2-(4-bromophenyl)-6-(4-chlorophenyl)-N-(2-hydroxy-2-methylpropyl)pyrimidine-4-carboxamide] showed an IC50 above 20000 nM.

As for `CC(C)(O)CNC(=O)c1cc(-c2ccc(Cl)cc2)nc(-c2ccc(Cl)cc2)n1` [Example 46, 2,6-bis(4-chlorophenyl)-N-(2-hydroxy-2-methylpropyl)pyrimidine-4-carboxamide], 9790 nM corresponded to half-maximal inhibition (IC50).

`COc1ccc(-c2nc(C(=O)NCC(C)(C)O)cc(-c3ccc(Cl)cc3)n2)cc1` [Example 47, 6-(4-chlorophenyl)-N-(2-hydroxy-2-methylpropyl)-2-(4-methoxyphenyl)pyrimidine-4-carboxamide] gave an IC50 of 2220 nM.

`CC(C)(O)CNC(=O)c1cc(-c2ccc(Cl)cc2)nc(-c2ccc(F)c(C#N)c2)n1` [Example 52, 6-(4-chlorophenyl)-2-(3-cyano-4-fluorophenyl)-N-(2-hydroxy-2-methylpropyl)pyrimidine-4-carboxamide] came in with an IC50 of 112 nM. This IC50 lies about 20-fold lower than the previous one.

Regarding `CC(C)(O)CNC(=O)c1cc(-c2ccc(Cl)cc2)nc(-c2cc(F)cc(C(F)(F)F)c2)n1` [Example 58, 6-(4-chlorophenyl)-2-[3-fluoro-5-(trifluoromethyl)phenyl]-N-(2-hydroxy-2-methylpropyl)pyrimidine-4-carboxamide], it took 77.6 nM to reach half-maximal inhibition (IC50).

As for `CC(C)(O)CNC(=O)c1cc(-c2ccc(Cl)cc2)nc(-c2cc(F)cc(C#N)c2)n1` [Example 62, 6-(4-chlorophenyl)-2-(3-cyano-5-fluorophenyl)-N-(2-hydroxy-2-methylpropyl)pyrimidine-4-carboxamide], the half-inhibitory concentration (IC50) amounted to 57.8 nM.

In turn, `C[C@@H](CO)NC(=O)c1cc(-c2ccc(Cl)cc2)nc(-c2cc(Cl)cc(Cl)c2)n1` [Example 67, 6-(4-chlorophenyl)-2-(3,5-dichlorophenyl)-N-[(2S)-1-hydroxypropan-2-yl]pyrimidine-4-carboxamide] registered an IC50 of 101 nM.

In the case of `C[C@@H](CO)NC(=O)c1cc(-c2ccc(Cl)cc2)nc(-c2ccc(F)c(C#N)c2)n1` [Example 68, 6-(4-chlorophenyl)-2-(3-cyano-4-fluorophenyl)-N-[(2S)-1-hydroxypropan-2-yl]pyrimidine-4-carboxamide], the IC50 is 102 nM.

Regarding `C[C@@H](CO)NC(=O)c1cc(-c2ccc(Cl)cc2)nc(-c2ccc(Cl)c(Cl)c2)n1` [Example 72, 6-(4-chlorophenyl)-2-(3,4-dichlorophenyl)-N-[(2S)-1-hydroxypropan-2-yl]pyrimidine-4-carboxamide], the IC50 was 361 nM.

The compound `C[C@@H](CO)NC(=O)c1cc(-c2ccc(Cl)cc2)nc(-c2ccc(OC(F)(F)F)cc2)n1` [Example 73, 6-(4-chlorophenyl)-N-[(2S)-1-hydroxypropan-2-yl]-2-[4-(trifluoromethoxy)phenyl]pyrimidine-4-carboxamide] gave an IC50 of 9720 nM.

As for `C[C@@H](CO)NC(=O)c1cc(-c2ccc(Cl)cc2)nc(-c2cc(F)cc(C(F)(F)F)c2)n1` [Example 75, 6-(4-chlorophenyl)-2-[3-fluoro-5-(trifluoromethyl)phenyl]-N-[(2S)-1-hydroxypropan-2-yl]pyrimidine-4-carboxamide], the 50% inhibitory concentration (IC50) was 97.8 nM.

Take `Cc1cc(F)cc(-c2nc(C(=O)N[C@@H](C)CO)cc(-c3ccc(Cl)cc3)n2)c1` [Example 77, 6-(4-chlorophenyl)-2-(3-fluoro-5-methylphenyl)-N-[(2S)-1-hydroxypropan-2-yl]pyrimidine-4-carboxamide]: 26.4 nM corresponded to half-maximal inhibition (IC50). This IC50 lies about 3.7-fold lower than the previous one.

With `CC(O)C(NC(=O)c1cc(-c2ccc(OC(F)(F)F)cc2)nc(-c2cccc(F)c2)n1)C(F)(F)F` (stereo not shown) [Example 91, 2-(3-fluorophenyl)-N-(1,1,1-trifluoro-3-hydroxybutan-2-yl)-6-[4-(trifluoromethoxy)phenyl]pyrimidine-4-carboxamide], the IC50 is above 20000 nM.
